Numbers after ± are expanded uncertainties.

This series in a line: mn = molality of the nth substance listed, in mol/kg. The note with it: 298.15 K, 101 kPa, Liquid, Vibrating tube method.

Take `O=S(=O)(O)CC(O)CN1CCOCC1` (stereo not given) [3-morpholino-2-hydroxypropanesulfonic acid] + O: the mass density – broadly, the mass of a sample divided by its volume – was determined as 1006.93 ± 0.14 kg/m3 (m1 = 0.1262); 1017.35 ± 0.14 kg/m3 (m1 = 0.2647); 1044.51 ± 0.14 kg/m3 (m1 = 0.6529); 1067.2 ± 0.14 kg/m3 (m1 = 1.012); 1093.32 ± 0.15 kg/m3 (m1 = 1.477); 1120.89 ± 0.16 kg/m3 (m1 = 2.03). The mass density by setting is: (m1 = 2.537) 1142.98 ± 0.17 kg/m3; (m1 = 3.196) 1168.39 ± 0.19 kg/m3; (m1 = 3.75) 1187 ± 0.2 kg/m3.

Take `O=S(=O)(O)CCCN1CCOCC1` [4-morpholinepropanesulfonic acid] + O: the mass density runs as follows: (m1 = 0.0212) 998.4 ± 0.13 kg/m3; (m1 = 0.0584) 1000.76 ± 0.13 kg/m3; (m1 = 0.1012) 1003.44 ± 0.13 kg/m3; (m1 = 0.2396) 1011.89 ± 0.13 kg/m3; (m1 = 0.6942) 1037.46 ± 0.13 kg/m3; (m1 = 1.248) 1064.7 ± 0.13 kg/m3. Moreover, the mass density is on record as 1106.41 ± 0.14 kg/m3 (m1 = 2.273); 1138.03 ± 0.15 kg/m3 (m1 = 3.243); 1168.14 ± 0.16 kg/m3 (m1 = 4.387); 1195.72 ± 0.17 kg/m3 (m1 = 5.781); 1217.61 ± 0.18 kg/m3 (m1 = 7.087).

The values above are taken from the NIST ThermoML archive (doi:10.1016/j.jct.2011.05.036).
